Values quoted from earlier work as cited in patent US20020022649A1, “STABLE PHARMACEUTICAL FORMULATION” (priority 1998, published 2002).

Conditions: centchroman as a racemate

For `COc1ccc2c(c1)OC(C)(C)C(c1ccccc1)C2c1ccc(OCCN2CCCC2)cc1` (racemic) [centchroman, 3,4-trans-2,2-dimethyl-3-phenyl-4-[4-(2-pyrrolidin-1-yl)ethoxy)phenyl]-7-methoxychroman], the “cholesterol lowering, serum concentrations” value is given as “significant decrease of the serum concentrations”.
